The values that follow come from EP4759148A1, “ADJUSTMENT OF CIRCADIAN RHYTHM” (MEIJI CO., LTD, priority 2023, dated 2025).

The structures appear in SMILES notation.

Test [1] deals with GPR41 gene. Put plainly: induction of GPR41 gene expression in Caco-2 cells (real-time PCR). The settings on record: 5 mM fumaric acid, 60 minutes, differentiated Caco-2 cells; Fig. 2. The format is cell-based, human. Here is the method: Caco-2 cells were seeded in a 24-well plate at 2 × 10^5 cells/well. After 3 weeks of differentiation induction, 5 mM fumaric acid was added, and cells were collected 60 minutes later. RNA was extracted, and GPR41 gene expression levels were measured by real-time PCR.

For test [2], the system named is per2 reporter cells. The test can be described thus: circadian rhythm assay (luciferase reporter assay) using per2 reporter cells. The format is cell-based, human. The settings on record: 5 mM fumaric acid. As to the method: Referring to the "Cell-based circadian assays" described in the article by H. Oike et al. (NPL 1), a circadian rhythm assay (luciferase reporter assay) using per2 reporter cells was performed to evaluate the action of fumaric acid on circadian rhythms.
U-2OS cells were transfected with a vector prepared by incorporating the per2 promoter region into a NanoLuc (registered trademark) luciferase vector by using transfection reagent 1 according to a standard method. After about 24 hours, the medium was replaced, and dexamethasone was added at a final concentration of 100 nM to synchronize the cells. After two hours, 1% substrate (Endurazine) was added, and the luminescence intensity of luciferase was measured every 30 minutes using a plate reader equipped with CO2 control and temperature control.
After 25 days, formed colonies were collected and seeded in a 96-well plate (1 × 10^3 cells/well). After three days, the luminescence intensity of luciferase was measured every 60 minutes using a plate reader with CO^2 control and temperature control, in the same manner as described above.
Subsequently, cell lines with minimal variation in circadian rhythm cycle and stable periodicity were selected. These selected cell lines, referred to as "per2 reporter cells" were used in the following experiments.
The prepared per2 reporter cells were seeded in a 96-well plate at a density of 5 × 10^3 cells/well. The medium used was high-glucose medium 1 supplemented with 10% fetal bovine serum (FBS), 1% penicillin-streptomycin, and hygromycin, and the cells were cultured at 37°C under 5% CO2 conditions.
After two days from culture, 100 nM dexamethasone was added, and the cells were treated for 2 hours, followed by adding a 1% substrate (Endurazine). Subsequently, the luminescence intensity of luciferase was measured every 12 minutes. For the measurement, high-glucose medium 2 supplemented with 5% FBS and 1% penicillin-streptomycin was used.
Subsequently, fumaric acid was added to the measurement medium to achieve a final concentration of 5 mM, and the luminescence intensity of luciferase was measured over time using a long-term real-time luminescence measurement system for cultured cells (WSL-1565, Kronos HT) to evaluate changes in circadian rhythm. For a control, the luminescence intensity of luciferase in per2 reporter cells cultured in measurement medium without fumaric acid was measured over time in the same manner.
In the luminescence intensity rhythms, valleys were represented by T and peaks by P, and they were labeled as P1, T1, P2, and T2 in order of appearance. Since P1 was unstable in rhythm, the circadian rhythm of per2 reporter cells was evaluated based on the phases of the valleys (T1 and T2) and peak (P2) after T1.

Setting [3] is: fumaric acid-added cells versus control.

`O=C(O)/C=C/C(=O)O` [Fumaric Acid, fumaric acid]: the “expression level of the GPR41 gene” value in test [1] is “increased”. In addition, the “circadian rhythm cycle, T2-T1” value in test [2] (calculated from the phase difference between T1 and T2, control 29.6) was 26.4 h. Also, in test [2] (first valley (T1) of luciferase luminescence rhythm, U-2OS per2 reporter cells, control 22.4), the “phase of circadian rhythm, T1” value is 22.2 h. In test [2] (setting [3]), the “Difference in Cycle, T2-T1” value was -3.2 h; the “Difference in Phase, P2” value was -0.6 h; the “Difference in Phase, T1” value was -0.2 h; the “Difference in Phase, T2” value was -3.4 h. In addition, the “phase of circadian rhythm, P2” value in test [2] (peak P2 of luciferase luminescence rhythm, control 34.8) stood at 34.2 h. Besides, in test [2] (second valley (T2) of luciferase luminescence rhythm, control 52.0), the “phase of circadian rhythm, T2” value came to 48.6 h.
